Data on three compounds can be found in patent US7049311B1, “Pyrrolbenzodiazepines” (Spirogen Limited, priority 1998, dated 2006).

Like-named read-outs stand apart in the source and are kept apart here.

Assay [1] concerns SKOV-3. Nature of the assay: Ovarian carcinoma cytotoxicity assay. In kind it is cell-based. The following applies: Homo sapiens. The procedure, abridged:
(§1)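 Cells attached overnight, then read 96 hours later by sulphorhodamine B staining of TCA-fixed cells, with absorbance at 540 nm. IC50 taken from concentration versus % absorbance relative to untreated wells; cisR lines are cisplatin-resistant.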

Assay [2] relates to CH1. Nature of the assay: Ovarian carcinoma cytotoxicity assay. The following applies: Homo sapiens. In kind it is cell-based. In a few lines:
as §1

Assay [3] has as its system CH1cisR. Put plainly: Ovarian carcinoma cytotoxicity assay. In kind it is cell-based. The following applies: Homo sapiens, CH1cisR. In a few lines:
as §1

For assay [4], the system named is A2780. Nature of the assay: Ovarian carcinoma cytotoxicity assay. In kind it is cell-based, human. The following applies: Homo sapiens. In a few lines:
as §1

Assay [5] deals with A2780cisR. Nature of the assay: Ovarian carcinoma cytotoxicity assay. It counts as cell-based, human. The following applies: Homo sapiens, A2780cisR. In a few lines: as §1
Assay [6] has as its system SK-MEL-2. Nature of the assay: NCI in vitro cytotoxicity screen. It counts as cell-based. Conditions: Homo sapiens, SK-MEL-2, 48 h, read-out: LC50. On the procedure:
(§2) The National Cancer Institute (NCI), Bethesda, Md., USA has available an in vitro cytotoxicity screen which consists of approximately 60 human tumour cell lines against which compounds are tested at a minimum of five concentrations each differing 10-fold. A 48 hour continuous exposure protocol is used, where cell viability or growth is estimated with an SRB protein assay.
(§3) The test compounds were evaluated against approximately 60 human tumour cell lines. The NCI screening procedures were described in detail by Monks and co-workers (Monks, A et al., Journal of the National Cancer Institute, 1991, 83, 757). Briefly, cell suspensions were diluted according to the particular cell type and the expected target cell density (5000-40,000 cells per well based on cell growth characteristics), and added by pipette (100 μL) into 96-well microtitre plates. The cells were allowed a preincubation period of 24 hours at 37° C. for stabilisation. Dilutions at twice the intended test concentration were added at time zero in 100 μL aliquots to the wells. The test compounds were evaluated at five 10-fold dilutions (10^−4, 10^−5, 10^−6, 10^−7 and 10^−[…]). The test compounds were incubated for 48 hours in 5% CO2 atmosphere and 100% humidity. The cells were then assayed using the sulphorhodamine B assay. A plate reader was used to read the optical densities and a microcomputer processed the readings into LC50 values, which is the dosage required to kill half of the cells.

Assay [7] relates to NCI-H522. Nature of the assay: NCI in vitro cytotoxicity screen. It counts as cell-based. Conditions: Homo sapiens, NCI-H522, 48 h, read-out: LC50. On the procedure: as §2, §3
In assay [8] the test system is M14. Nature of the assay: NCI in vitro cytotoxicity screen. It counts as cell-based. The following applies: Homo sapiens, M14, 48 h, read-out: LC50. As to the method: as §2, §3
Assay [9] has as its system RXF 393. Put plainly: NCI in vitro cytotoxicity screen. It counts as cell-based. The following applies: Homo sapiens, RXF 393, 48 h, read-out: LC50. As to the method:
as §2, §3

The test system of assay [10] is SK-MEL-28. Put plainly: NCI in vitro cytotoxicity screen. It counts as cell-based. Conditions: Homo sapiens, SK-MEL-28, 48 h, read-out: LC50. As to the method: as §2, §3
Assay [11] relates to LOX IMVI. Nature of the assay: NCI in vitro cytotoxicity screen. It counts as cell-based. The following applies: Homo sapiens, 48 h, read-out: LC50. On the procedure: as §2, §3
For assay [12], the system named is SF-539. Nature of the assay: NCI in vitro cytotoxicity screen. The following applies: Homo sapiens, SF-539, 48 h, read-out: LC50. It counts as cell-based. On the procedure: as §2, §3
Assay [13] deals with MALME-3M. Nature of the assay: NCI in vitro cytotoxicity screen. Conditions: Homo sapiens, Malme-3M, 48 h, read-out: LC50. It counts as cell-based. As to the method: as §2, §3
The subject of assay [14] is SF-295. Put plainly: cells. In kind it is cell-based. Conditions: Homo sapiens, SF-295, 48 h, read-out: LC50. On the procedure:
as §2
as §3, with “The test compounds were incubated for 48 hours in 5% CO2 atmosphere and 100% humidity. The cells were then assayed using the sulphorhodamine B assay.” left out

Assay [15] deals with HCC-2998. Put plainly: NCI in vitro cytotoxicity screen. In kind it is cell-based. The following applies: Homo sapiens, HCC 2998, 48 h, read-out: LC50. As to the method: as §2, §3
For assay [16], the system named is KM12. Nature of the assay: NCI in vitro cytotoxicity screen. It counts as cell-based. The following applies: Homo sapiens. On the procedure:
as §2, §3

Assay [17] relates to SK-MEL-5. Put plainly: NCI in vitro cytotoxicity screen. It counts as cell-based. Conditions: Homo sapiens, SK-MEL-5, 48 h, read-out: LC50. On the procedure: as §2, §3
Assay [18] has as its system MDA-MB-435. Nature of the assay: NCI in vitro cytotoxicity screen. Conditions: Homo sapiens, MDA-MB-435, 48 h, read-out: LC50. In kind it is cell-based. On the procedure: as §2, §3
The test system of assay [19] is UACC-62. Nature of the assay: NCI in vitro cytotoxicity screen. Conditions: Homo sapiens, UACC-62, 48 h, read-out: LC50. It counts as cell-based. As to the method:
as §2, §3

Assay [20] relates to COLO 205. Put plainly: NCI in vitro cytotoxicity screen. It counts as cell-based. The following applies: Homo sapiens, COLO 205, 48 h, read-out: LC50. On the procedure: as §2, §3
Assay [21] deals with NCI-H226. Nature of the assay: NCI in vitro cytotoxicity screen. Conditions: Homo sapiens, NCI-H226, 48 h, read-out: LC50. It counts as cell-based. As to the method: as §2, §3
Assay [22] has as its system MDA-N. Nature of the assay: NCI in vitro cytotoxicity screen. The following applies: Homo sapiens, 48 h, read-out: LC50. In kind it is cell-based. As to the method:
as §2, §3

In assay [23] the test system is HS 578T. Nature of the assay: NCI in vitro cytotoxicity screen. In kind it is cell-based. Conditions: Homo sapiens; HS 578T (Breast), 48 hour exposure, SRB assay; read-out: LC50 (the source's name). On the procedure:
as §2, §3

The subject of assay [24] is SNB-75. Nature of the assay: NCI in vitro cytotoxicity screen. In kind it is cell-based. The following applies: Homo sapiens, SNB-75, 48 h, read-out: LC50. As to the method: as §2, §3

Broadly, the IC50 is the concentration that inhibits the measured activity by half.

As to `COc1cc2c(cc1OCCC(=O)N1CCCC1)N=C[C@@H]1CCCN1C2=O` [UP2005 (161), 3-(7-methoxy-5-oxy(11aS)-2,3,5,11a-tetrahydro-1H-benzo[e]pyrrolo[1,2-a][1,4]diazepin-8-yloxy)-1-perhydro-1-pyrrolyl-1-propanone], the IC50 was 5.4 µM in assay [1] (SK-OV-3, 96 h, read-out: IC50 Skov3, 96 hours, sulphorhodamine B); 1.4 µM in [2] (CH1, 96 h, read-out: IC50 CH1, 96 hours, sulphorhodamine B); 1.85 µM in assay [3] (96 h, read-out: IC50 CH1cisR, cisplatin-resistant, 96 hours, sulphorhodamine B); 1.5 µM in [4] (A2780, 96 h, read-out: IC50 A2780, 96 hours, sulphorhodamine B); 4.3 µM in assay [5] (96 h, read-out: IC50 A2780cisR, cisplatin-resistant, 96 hours, sulphorhodamine B). Further, the CC50 in assay [6] worked out at 7.6 µM; in [7], 8.7 µM; in [8], 6.2 µM; in [9] it was 6.8 µM; in assay [10] it was 6.5 µM; in [11] it was 9.2 µM. For the same compound, the CC50 in assay [12] was 7.7 µM; in [13], 7.5 µM; in [14], 8.8 µM.
`C=C1C[C@H]2C=Nc3ccc(I)cc3C(=O)N2C1` [UP2023 (64), (11as)-7-Iodo-2-methylidene-1,2,3,11a-tetrahydro-5H-pyrrolo[2,1-c][1,4]benzodiazepin-5-one]: the IC50 was found to be 16 µM in assay [1] (SK-OV-3, 96 hours, sulphorhodamine B, read-out: IC50 Skov3); 0.37 µM in [2] (CH1, 96 hours, sulphorhodamine B, read-out: IC50 CH1); 0.43 µM in assay [3] (cisplatin-resistant, 96 hours, sulphorhodamine B, read-out: IC50 CH1cisR); 0.49 µM in assay [4] (A2780, 96 hours, sulphorhodamine B, read-out: IC50 A2780); 1.45 µM in assay [5] (cisplatin-resistant, 96 hours, sulphorhodamine B, read-out: IC50 A2780cisR). In addition, the CC50 in assay [15] is 7 µM; in assay [6] it was 7.4 µM; in assay [16] (KM12, 48 h, read-out: LC50), 7.1 µM; in assay [7] it was 5.2 µM; in assay [9] it was 6.1 µM; in assay [17] it was 6 µM. Also, the CC50 in assay [18] amounted to 7.6 µM; in [19], 7.2 µM; in assay [20], 5.8 µM; in assay [10] it was 8.4 µM; in [21] it was 9.1 µM; in assay [12], 9.4 µM. Moreover, the CC50 in assay [22] is 6.6 µM; in [13] it was 7.8 µM.
Consider `Nc1ccc2c(c1)N=C[C@@H]1CCCN1C2=O` [UP2028 (151), (11aS)-8-amino-1,2,3,11a-tetrahydro-5H-pyrrolo[2,1-c][1,4]benzodiazepin-5-one], for which the CC50 in assay [6] came to 5.4 µM; in assay [16] (KM12 (Colon), 48 hour exposure, SRB assay, read-out: LC50 (the source's name)), 8.8 µM; in [7] it was 0.8 µM; in assay [9] it was 0.7 µM; in assay [23] it was 9.2 µM; in assay [18] it was 7.2 µM. For the same compound, the CC50 in assay [20] was 5 µM; in assay [10], 8.1 µM; in assay [13], 5.7 µM; in assay [24], 8.2 µM.
